Data reported in patent US6277886A (priority 1996, dated 2001).

Test system: MAO mediated effects
Conditions: Examples 4-9; in words

## C#CCN[C@H]1CCc2ccccc21 [S(-)PAI, S-(-)-N-propargyl-1-aminoindan]
  effect on several MAO mediated effects: minimal or no effect
